Measurements as given in paper PMC11310113, “Development of a UPLC-MS/MS method for quantifying KPT-335 (Verdinexor) in feline plasma for a study of PK” (Frontiers in Veterinary Science, 2024).
Like-named read-outs stand apart in the source and are kept apart here.

Experiments:
[1] = design: method as in PMID 30143046; details: day 14, cited from earlier work; for AUClast (AUC) / HL_Lambda_z / Tmax: dog (n = 4)
[2] = Pharmacokinetic study of KPT-335 capsules in cats, single oral dose; format: in vivo, cat
Description: The recommended dose of KPT-335 for dogs is 1.5 mg/kg body weight (BW). To calculate the dose for cats, the average weight of the tested cats was substituted in the equation used for dogs, and the recommended dose was 2 mg/kg BW through body surface area (BSA) conversion ([20]). The formula was as follows: […]
where K is a constant determined for different animal species, such as a dog (11.0) and cat (8.7), and W is the BW (kg) of the animal. Km is approximated by the individual animal species taking the ratio between the mean weight (kg) and BSA (m^2), this value can be calculated using Formula 1. The average weight of the six tested cats was used in BW parameters, the dosage was calculated by Formula 2, and KPT-335 was weighed into capsules and administered to the animals. The cats were fasted for 12 h before and 2 h following drug administration. Potential adverse effects were monitored during the study. The capsules were administered orally as a single bolus to the back of the tongue via a dosing syringe, accompanied by 3–5 mL of water.
Samples of blood (1 mL) were collected from the brachial cephalic vein at 0.167, 0.333, 0.5, 0.75, 1, 1.5, 2, 4, 6, 8, 12, 24, 36, and 48 h pre- and post-oral dosing into an anticoagulant blood collection tube containig heparin sodium. Blood samples were centrifuged for 8 min at 1800 × g. The plasma layer was taken and divided evenly into two. The plasma samples were stored at −20°C until analysis (within 20 days of collection). For the pharmacokinetic parameters, the blood drug concentration-time data was analyzed by using WinNonlin software (version 8.1, United States). The elimination half-life (T1/2), the maximum plasma concentration of KPT-335 (Cmax), the time when the plasma concentration reached a maximum (Tmax), and the area under the concentration-time curve (AUC) were determined.

[3] = Stability of KPT-335 in cat plasma samples (UPLC-MS/MS); format: in vitro ADME; details: for recovery at 8 h: cat
Description: KPT-335 working solution was added to blank plasma, LQC, MQC, and HQC samples to investigate the room-temperature stability for 2 h, freeze–thaw stability with three times, autosampler stability for 24 h, and long-term stability of 20 days at −20°C. The stability of the stock solution for 20 days was also investigated.
Given that plasma is mostly neutral or alkaline, to optimize the stability of KPT-335 at room temperature and ensure the desirable result of the sample during the detection process, we carried out further experiments. There were four groups in the experiment. The first group was the normal preparation of the sample, and the second, third, and fourth groups were samples containing 0.01, 0.05, or 0.1% formic acid, respectively. All the samples were placed at room temperature for 12 h and then processed at the same time for detection.

[4] = design: method as in PMID 24503695; details: healthy beagle dogs (n = 6), single dose 1.5 mg/kg BW p.o. after meals; cited from earlier work
[5] = average of all dogs (1.5 and 1.25 mg/kg BW)
[6] = cat (n = 6), 2 mg/kg BW p.o., single dose, fasted
[7] = plasma, cats, single oral dose of capsules 2 mg/kg BW

## O=C(/C=C\n1cnc(-c2cc(C(F)(F)F)cc(C(F)(F)F)c2)n1)NNc1ccccn1 [KPT-335]
[1]; [5]
  average T1/2: 5 h
  average Tmax: 5.3 h
[1]; 1.25 mg/kg BW p.o.
  AUClast (AUC): 1576.5 ng·h/mL
  HL_Lambda_z: 5 h
  Tmax: 5.3 h
[1]; 1.5 mg/kg BW p.o.
  AUClast (AUC): 2346.8 ng·h/mL
  HL_Lambda_z: 5 h
  Tmax: 5.3 h
[2]; [6]
  AUC_%Extrap_obs: 11.32 ± 6.56%
  HL_Lambda_z: 5.16 ± 2.30 h
[2]; plasma, po, cat (n = 6), 2 mg/kg BW p.o., single dose, fasted
  MRT last: 5.46 ± 2.14 h
[2]; plasma, po, cat (n = 6), 2 mg/kg BW p.o., single dose, fasted, read-out: Lambda_z (converted)
  k el: 4.17e-05 s⁻¹
[2]; [7]
  AUC(0-inf): 1590 ± 1000 ng·h/mL
  AUC(0-t): 1440 ± 965 ng·h/mL
  Cmax: 240 ± 191 ng/mL
  Tmax: 1.46 ± 0.51 h
  half-life: 5.16 ± 2.3 h
[3]; acidic plasma (formic acid added), room temperature, 12 h
  room temperature stability accuracy: still acceptable
[3]; plasma, 4°C, read-out: sample recovery
  recovery at 8 h: > 80%
[3]; plasma, 8 h at room temperature, read-out: sample recovery rate
  recovery at 8 h: 59 to 67.5%
[3]; plasma, light-protected, read-out: recovery rate of light-protected samples
  recovery at 8 h: 60.4 to 63.2%
[3]; plasma containing 0.1% formic acid, room temperature, 12 h
  accuracy of stable samples at room temperature: more than 85%
[3]; plasma, room temperature, 2 h, all concentrations
  room temperature stability accuracy: met the requirement of ±15%
[3]; plasma, room temperature, 8 h
  room temperature stability accuracy: did not meet the requirement of ±15%
[3]; plasma, room temperature, 24 h
  room temperature stability result: not within the requirement of ±15%
[4]
  AUCINF_obs: 1810 ± 216 ng·h/mL
  AUClast (AUC0-t): 1760 ± 223 ng·h/mL
  Cmax: 253 ± 88.3 ng/mL
  HL_Lambda_z (T1/2): 3.88 ± 1.47 h
  Tmax: 3.83 ± 2.71 h
